Here are results for 40 compounds from patent US12281114B2, “NK3 modulators and uses thereof” (Kallyope, Inc., priority 2023, dated 2025).

This assay deals with T1, human NK3 (Homo sapiens, UniProt P29371).
T1 sequence (P29371 1-465): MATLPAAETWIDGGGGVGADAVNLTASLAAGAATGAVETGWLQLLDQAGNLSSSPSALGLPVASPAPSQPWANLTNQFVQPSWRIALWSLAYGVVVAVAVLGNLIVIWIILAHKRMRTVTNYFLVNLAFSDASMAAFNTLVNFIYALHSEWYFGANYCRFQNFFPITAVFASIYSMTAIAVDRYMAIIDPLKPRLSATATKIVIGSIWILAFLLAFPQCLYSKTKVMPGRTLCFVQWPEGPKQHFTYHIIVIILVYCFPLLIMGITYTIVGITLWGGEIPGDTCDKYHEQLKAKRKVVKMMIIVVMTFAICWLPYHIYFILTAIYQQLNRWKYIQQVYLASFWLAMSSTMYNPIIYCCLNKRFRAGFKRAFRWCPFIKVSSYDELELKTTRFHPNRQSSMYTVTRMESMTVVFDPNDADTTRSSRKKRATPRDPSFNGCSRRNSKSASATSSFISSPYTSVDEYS
As to the kind of experiment: FLIPR calcium assay in antagonist mode (NKB EC70 challenge). It counts as cell-based. Conditions: stable cell line expressing human recombinant NK3; antagonist mode vs EC70 of NKB agonist. As to the method: Stable Cell Lines: A human recombinant NK3 Tachykinin Receptor stable cell line was purchased from GenScript (Genscript, Cat. #M00201; GenBank Accession Number NM 001059). The cell line was cultured according to manufacturer instructions, using 100 μg/mL Hygromycin B (Invitrogen, Cat. #D2650) for selective pressure. Cells were then collected using 0.05% Trypsin-EDTA (GIBCO, Cat. #25300) and frozen in a freezing media containing 90% FBS (Gibco, Cat. #10099-141) and 10% DMSO (Sigma, Cat. #D2650) at a density of 30×10^6 cells/mL. This bank of assay-ready frozen cells was later used in FLIPR assays to evaluate the potency and efficacy of NK3 antagonist test compounds.
FLIPR Calcium Assay: The FLIPR assay, used to measure changes in intracellular calcium levels, was performed in a 384-well plate format using the FLIPR Calcium 6 assay kit (Molecular Devices, Cat. #R8190). Assay-ready frozen cells expressing human NK3 (Genscript, Cat. #M00201) were thawed, washed, trypsinized, counted using a ViCell, and plated in cell growth media without Hygromycin at a density of […] (40 μL/well).
Calculation of NKB EC70: An EC70 concentration of NKB needed to be determined for competition against test antagonists prior to the compound screen. NKB agonist (Phoenix Pharmaceuticals, Cat. #046-26) was diluted in DMSO at 1800 nM (6-fold the final concentration) and serially diluted to generate a 13-point dose response curve (3-fold serial dilution) using an ECHO. 20 μL of 1× stimulation buffer was added using the BRAVO. 10 μL of DMSO was added while on the FLIPR (described as the first addition), then the RFU signal was measured for 10 minutes. The NKB titration was added to the plate, then the RFU signal was measured for 10 minutes (described as the second addition) on the FLIPR. The EC70 concentration was determined by using a four-parameter fit on GraphPad Prism prior to performing the compound screen.
FLIPR Screen in Antagonist Mode: Test compounds were prepared at 60 μM (6-fold the final concentration) and spotted in 370 nL using the Janus and ECHO. 20 μL of assay buffer was added using the BRAVO. Calcium-sensitive dye was reconstituted in loading buffer (Molecular Devices, Cat. #R8190). Media was removed from the cell plate using a Bluecat Cell Washer, and 40 μL of dye was added to the cell plate using the Apricot. The plate was incubated for 2 hours at 37° C., 5% CO2, then transferred to the FLIPR instrument. 10 μL of compound was added on the FLIPR (described as the first addition), then the RFU signal was measured for 10 minutes. EC70 of NKB agonist was added to the entire plate (described as the second addition), and the RFU signal was measured for 10 minutes on the FLIPR. RFU (relative fluorescence units) signals for first baseline, first peak, second baseline, and second peak were measured using the FLIPR. RFU signal (second peak minus second baseline) for positive (Max, at 10 μM antagonist) and negative (Min, at 0 μM antagonist) controls were used to normalize data and generate values for % Activity. IC50 and efficacy values were determined using a standard curve fitting equation on Dotmatics.
For `Cc1nn(C)cc1-c1ccccc1-c1nc2cc(C(=O)N[C@H]3C[C@H](CO)C3)ccn2c1Cl` [Compound 641], the IC50 was 1.04 nM.

Consider `Cc1nn(C)cc1-c1ccccc1-c1nc2cc(C(=O)N[C@H]3C[C@@H](CO)C3)ccn2c1Cl` [Compound 643], for which the IC50 amounted to 1.08 nM. Take `Cc1nn(C)cc1-c1ccccc1-c1nc2cc(C(=O)NC[C@H]3C[C@@H](O)C3(C)C)ccn2c1Cl` [Compound 645]: the IC50 is 2.02 nM. Take `Cc1nn(C)cc1-c1ccccc1-c1nc2cc(C(=O)N3C[C@@H]4[C@@H](O)[C@@H]4C3)ccn2c1Cl` [Compound 647]: the IC50 stood at 9.16 nM. Take `Cc1nn(C)cc1-c1ccccc1-c1nc2cc(C(=O)NCC3(O)COC3)ccn2c1Cl` [Compound 650]: the concentration for half-maximal inhibition (IC50) came to 5.83 nM. Consider `Cc1nn(C)cc1-c1ccccc1-c1nc2cc(C(=O)NCCC3(O)COC3)ccn2c1Cl` [Compound 651], for which the concentration for half-maximal inhibition (IC50) was determined as 9.28 nM. Then `Cc1nn(C)cc1-c1ccccc1-c1nc2cc(C(=O)NC3CCNCC3)ccn2c1Cl` [Compound 704], with 6.76 nM; and `Cc1nn(C)cc1-c1cccc(F)c1-c1nc2cc(C(=O)NC3CCNCC3)ccn2c1Cl` [Compound 705], with 4.97 nM; and `Cc1nn(C)cc1-c1ccccc1-c1nc2cc(C(=O)NC(C)c3n[nH]c(=O)[nH]3)ccn2c1Cl` (stereo not shown) [Compound 747], with 2.08 nM. For the compound `Cc1nn(C)cc1-c1ccccc1-c1nc2cc(C(=O)NCCc3n[nH]c(=O)[nH]3)ccn2c1Cl` [Compound 748], the IC50 came to 5.58 nM. Regarding `Cc1nc(N)ccc1CNC(=O)c1ccn2c(Cl)c(-c3ccccc3-c3cn(C)nc3C)nc2c1` [Compound 759], the IC50 was 2.78 nM. Take `Cc1nn(C)cc1-c1ccccc1-c1nc2cc(C(=O)NCc3cnc(N)nc3)ccn2c1Cl` [Compound 761]: the IC50 was 1.92 nM. As for `Cc1nn(C)cc1-c1ccccc1-c1nc2cc(C(=O)N[C@H]3CO[C@H]4[C@@H]3OC[C@@H]4O)ccn2c1Cl` [Compound 767], the IC50 was determined as 4.26 nM. As to `Cc1nn(C)cc1-c1ccccc1-c1nc2cc(C(=O)N[C@H]3CO[C@H]4[C@@H]3OC[C@H]4O)ccn2c1Cl` [Compound 768], the IC50 was 1.96 nM. Turning to `Cc1nn(C)cc1-c1cccc(F)c1-c1nc2cc(C(=O)N[C@H]3CO[C@H]4[C@@H]3OC[C@@H]4O)ccn2c1Cl` [Compound 773], the IC50 amounted to 2.63 nM. Take `Cc1nn(C)cc1-c1ccccc1-c1nc2cc(C(=O)N[C@H]3CO[C@H]4[C@@H]3OC[C@@H]4O)ccn2c1C#N` [Compound 774]: the IC50 came to 5.21 nM. Consider `Cc1nn(C)cc1-c1cccc(F)c1-c1nc2cc(C(=O)N[C@H]3CO[C@H]4[C@@H]3OC[C@@H]4O)ccn2c1C#N` [Compound 775], for which the IC50 was 4.64 nM. The same measure for `Cc1nn(C)cc1-c1ccccc1-c1nc2cc(C(=O)N[C@H]3CO[C@H]4[C@@H]3OC[C@H]4O)ccn2c1C` [Compound 779]: 5.82 nM. Then `Cc1nn(C)cc1-c1cccc(F)c1-c1nc2cc(C(=O)N[C@H]3CO[C@H]4[C@@H]3OC[C@H]4O)ccn2c1Cl` [Compound 780], with 3.34 nM; and `Cc1nn(C)cc1-c1ccccc1-c1nc2cc(C(=O)N[C@H]3CO[C@H]4[C@@H]3OC[C@H]4O)ccn2c1C#N` [Compound 781], with 12.7 nM. `Cc1nn(C)cc1-c1cccc(F)c1-c1nc2cc(C(=O)N[C@H]3CO[C@H]4[C@@H]3OC[C@H]4O)ccn2c1C#N` [Compound 782]: the IC50 turned out to be 4.8 nM. As for `Cc1c(-c2ccccc2-c2cn(C)nc2C(F)(F)F)nc2cc(C(=O)N[C@@H]3CO[C@H]4[C@@H]3OC[C@H]4O)ccn12` [Compound 783], the IC50 came to 3.21 nM. Then `Cc1c(-c2ccccc2-c2cn(C)nc2C(F)(F)F)nc2cc(C(=O)N[C@H]3CO[C@H]4[C@@H]3OC[C@H]4O)ccn12` [Compound 784], with 6.21 nM. The same measure for `CC12CC(NC(=O)c3ccn4c(Cl)c(-c5c(F)cc(F)cc5-c5c[nH]nc5Cl)nc4c3)(CO1)C2` [Compound 788, 3-chloro-2-(2-(3-chloro-1H-pyrazol-4-yl)-4,6-difluorophenyl)-N-(1-methyl-2-oxabicyclo[2.1.1]hexan-4-yl)imidazo[1,2-a]pyridine-7-carboxamide]: 1.03 nM; for `N#CC12CC(NC(=O)c3ccn4c(Cl)c(-c5c(F)cc(F)cc5-c5c[nH]nc5F)nc4c3)(C1)C2` [Compound 789, 3-chloro-N-(3-cyanobicyclo[1.1.1]pentan-1-yl)-2-(2,4-difluoro-6-(3-fluoro-1H-pyrazol-4-yl)phenyl)imidazo[1,2-a]pyridine-7-carboxamide]: 1.99 nM. `CC12CC(NC(=O)c3ccn4c(Cl)c(-c5c(F)cc(F)cc5-c5c[nH]nc5F)nc4c3)(CO1)C2` [Compound 790, 3-chloro-2-(2,4-difluoro-6-(3-fluoro-1H-pyrazol-4-yl)phenyl)-N-(1-methyl-2-oxabicyclo[2.1.1]hexan-4-yl)imidazo[1,2-a]pyridine-7-carboxamide]: the concentration for half-maximal inhibition (IC50) stood at 3.31 nM. With `Cn1cc(-c2cccc(F)c2-c2nc3cc(C(=O)N[C@H]4C[C@@](C)(O)C4)ccn3c2Cl)c(F)n1` [Compound 791, 3-chloro-2-(2-fluoro-6-(3-fluoro-1-methyl-1H-pyrazol-4-yl)phenyl)-N-((1s,3s)-3-hydroxy-3-methylcyclobutyl)imidazo[1,2-a]pyridine-7-carboxamide], the IC50 came to 0.72 nM. Turning to `Cc1nn(C)cc1-c1ccccc1-c1nc2cc(C(=O)N3CCC4(CC(CO)C4)C3)ccn2c1Cl` (stereo not shown) [Compound 792], the 50% inhibitory concentration (IC50) worked out at 2.09 nM. Turning to `Cc1nn(C)cc1-c1ccccc1-c1nc2cc(C(=O)N[C@H]3C[C@H](C(C)(C)O)C3)ccn2c1Cl` [Compound 793], the IC50 came to 1.19 nM. Consider `Cc1nn(C)cc1-c1ccccc1-c1nc2cc(C(=O)N[C@@H]3CO[C@H]4[C@@H]3OC[C@H]4N)ccn2c1Cl` [Compound 794], for which the IC50 is 8.45 nM.

Take `Cn1cc(-c2ccccc2-c2nc3cc(C(=O)N4C[C@@H]5C[C@H]4C(=O)N5)ccn3c2Cl)c(C#N)n1` [Compound 795]: the IC50 is 12.5 nM.

`Cc1nn(C)cc1-c1cccc(F)c1-c1nc2cc(C(=O)N3CCN(C(CO)CO)CC3)ccn2c1Cl` [Compound 796]: the IC50 was 4.11 nM. Then `Cc1nn(C)cc1-c1ccccc1-c1nc2cc(C(=O)NC[C@@H](C)N3CCNCC3)ccn2c1Cl` [Compound 797], with 4.63 nM. With `Cc1nn(C)cc1-c1ccccc1-c1nc2cc(C(=O)N3C[C@@H]4NCCN[C@@H]4C3)ccn2c1Cl` [Compound 798], the IC50 amounted to 22.4 nM.

In the case of `Cc1nn(C)cc1-c1cccc(F)c1-c1nc2cc(C(=O)N3CCNCC3)ccn2c1Cl` [Compound 799], the IC50 stood at 4.7 nM. Consider `Cc1nn(C)cc1-c1ccc(F)cc1-c1nc2cc(C(=O)N3C[C@@H]4C[C@H]3C(=O)N4)ccn2c1Cl` [Compound 800], for which the IC50 amounted to 8.07 nM. Take `Cc1c(-c2ccccc2-c2nc3cc(C(=O)N[C@@H]4CO[C@H]5[C@@H]4OC[C@H]5O)ccn3c2Cl)cnn1CC1CC1` [Compound 801]: the IC50 stood at 22 nM.

For the compound `Cc1nn(C)cc1-c1cc(F)cc(F)c1-c1nc2cc(C(=O)N3CC4(O)CC3C4)ccn2c1Cl` [Compound 814], the IC50 amounted to 3.33 nM. The same measure for `O=C1N[C@H]2C[C@@H]1N(C(=O)c1ccn3c(Cl)c(-c4ccccc4-c4cnn(C(F)(F)F)c4C(F)(F)F)nc3c1)C2` [Compound 816]: 8.46 nM; for `Cc1nn(C)cc1-c1c(F)c(F)cc(F)c1-c1nc2cc(C(=O)N3C[C@@H]4C[C@H]3C(=O)N4)ccn2c1Cl` [Compound 817]: 1.92 nM.

What is called IC50 is the midpoint of a concentration-inhibition curve.
